The test system of one data set is Mus musculus. Put plainly: Toxicity in sc dosed mouse assessed as foot-pad swelling over 5 hrs relative to control. The following applies: in vivo. Format: organism-based.
Data set [1] is described as follows: Activation of PKC assessed as [gamma32P] incorporation at 2 mM after 15 mins by scintillation counting in presence of TPA.
A short description of data set [2]: Activation of PKC assessed as [gamma32P] incorporation at greater than 0.5 mM after 15 mins by scintillation counting in presence of Ca2+.
Data set [3] is described as follows: Activation of PKC assessed as [gamma32P] incorporation after 15 mins by scintillation counting in presence of TPA.

The structures appear in SMILES notation. Activity calls are given as the source filed them. No cut-off for these calls is given here.

Turning to `CC/C=C\C/C=C\CC[C@@H](O)CNC(=O)CCC[N+](C)(C)C.[I-]` [COMPLANINE], the results for the Activity result (in the data set on Mus musculus; in data set [1]) were “Toxic” and 10.9 pmol/min, respectively.
Regarding `CC(C)CCCCC(O)CNC(=O)CCC[N+](C)(C)C.[I-]` (stereo not drawn) [NEOCOMPLANINE A], the results for the Activity result (in the data set with Mus musculus; in data set [3]) were “Toxic” and “Dose-dependent effect”, respectively. Besides, the outcome in data set [2] was Active.
Consider `CCCCCCCC(O)CNC(=O)CCC[N+](C)(C)C.[I-]` (stereo not drawn) [NEOCOMPLANINE B], for which the figures for the Activity entry (in the data set on Mus musculus; in data set [3]) were “Toxic” and “Dose-dependent effect”, respectively. Besides, the result in data set [2] was Active.

The values are drawn from ChEMBL document CHEMBL1154845, “Neocomplanines A and B, a complanine family isolated from the marine fireworm” (J Nat Prod, 2010).
